Experimental data reported in ChEMBL document CHEMBL4417631, “Oral peptide inhibitors of interleukin-23 receptor and their use to treat inflammatory bowel diseases” (2017).
*1 amine or outer side, *2 acyl side, *3 side chain or, on linkers, in order; H or OH if unused. Where a SMILES comes first, the peptide text is derived from it. Bridges are numbered along the chain shown (N, C = ends). [ ]: non-standard residue; d: D form. Abu(4-yl) = O=C([C@H](CC[*:3])N[*:1])[*:2]; AEF = NCCOc1ccc(C[C@H](N)C(=O)O)cc1; Tic = O=C(O)[C@@H]1Cc2ccccc2CN1; αMeK = C[C@](N)(CCCCN)C(=O)O; Dap = NC[C@H](N)C(=O)O

Molecular target: T1, Interleukin-23 receptor (Homo sapiens, UniProt Q5VWK5)
T1 sequence (Q5VWK5 whole entry): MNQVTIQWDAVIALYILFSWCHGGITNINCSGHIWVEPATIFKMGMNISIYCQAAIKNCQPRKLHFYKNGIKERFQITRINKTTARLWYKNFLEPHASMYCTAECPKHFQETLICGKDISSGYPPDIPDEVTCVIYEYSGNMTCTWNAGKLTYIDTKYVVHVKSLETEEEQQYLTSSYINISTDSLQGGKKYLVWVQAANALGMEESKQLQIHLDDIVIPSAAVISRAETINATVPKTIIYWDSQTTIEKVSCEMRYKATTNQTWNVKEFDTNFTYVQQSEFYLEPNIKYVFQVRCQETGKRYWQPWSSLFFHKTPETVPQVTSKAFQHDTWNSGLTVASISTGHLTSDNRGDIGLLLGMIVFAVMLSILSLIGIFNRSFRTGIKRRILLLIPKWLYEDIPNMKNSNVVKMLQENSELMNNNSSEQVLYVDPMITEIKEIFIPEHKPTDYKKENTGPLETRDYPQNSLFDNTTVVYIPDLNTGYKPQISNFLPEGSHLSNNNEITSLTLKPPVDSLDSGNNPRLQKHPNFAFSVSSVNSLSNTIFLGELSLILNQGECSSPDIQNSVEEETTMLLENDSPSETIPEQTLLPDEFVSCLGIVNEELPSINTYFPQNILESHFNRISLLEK
Assay: Inhibition of interleukin-23 binding to human interleukin-23 receptor incubated for 2 hrs by competitive binding ELISA

SMILES	IC50 [µM]
C[C@@H](O)[C@H](NC(=O)[C@H](CCC(=O)O)NC(=O)[C@@H](N)CS)C(=O)N[C@@H](Cc1c[nH]c2ccccc12)C(=O)N[C@@H](CCC(=O)O)C(=O)N[C@@H](CS)C(=O)N[C@@H](Cc1ccc(O)cc1)C(=O)N[C@@H](Cc1c[nH]c2ccccc12)C(=O)N[C@@H](Cc1cnc[nH]1)C(=O)N[C@@H](CO)C(=O)N[C@@H](Cc1ccccc1)C(=O)N[C@@H](CO)C(N)=O (H-CETWECYWHSFS-NH2)	> 1
C[C@H](N)C(=O)N[C@@H](CS)C(=O)N[C@@H](CC(=O)O)C(=O)N[C@@H](Cc1c[nH]c2ccccc12)C(=O)N[C@@H](CS)C(=O)N[C@@H](CS)C(=O)N[C@@H](Cc1ccc(O)cc1)C(=O)N[C@@H](Cc1c[nH]c2ccccc12)C(=O)N[C@@H](CS)C(=O)N[C@H](C(=O)N[C@@H](Cc1ccccc1)C(=O)NCC(N)=O)[C@@H](C)O (H-ACDWCCYWCTFG-NH2)	> 1
CCCCCCCCCCCCCCCC(=O)NCCCC[C@H](NC(=O)[C@H](Cc1c[nH]c2ccccc12)NC(=O)[C@H](Cc1ccc(O)cc1)NC(=O)[C@H](CS)NC(=O)[C@H](CCC(N)=O)NC(=O)[C@H](Cc1c[nH]c2ccccc12)NC(=O)[C@@H](NC(=O)[C@H](CCC(N)=O)NC(=O)[C@H](CS)NC(C)=O)[C@@H](C)O)C(=O)N[C@@H](CCC(=O)O)C(=O)N[C@@H](CC(N)=O)C(=O)NCC(N)=O	4.88
CC(=O)N[C@@H](CS)C(=O)N[C@@H](C)C(=O)N[C@@H](CC(=O)O)C(=O)N[C@@H](Cc1c[nH]c2ccccc12)C(=O)N[C@H](C(=O)N[C@@H](CS)C(=O)N[C@@H](Cc1ccc(O)cc1)C(=O)N[C@@H](Cc1cc(F)cc(F)c1)C(=O)N[C@@H](CCCN)C(=O)N[C@@H](CN)C(=O)N[C@@H](Cc1ccccc1)C(=O)NCC(=O)NCCOCC(=O)N[C@H](CCCCN)C(N)=O)C(C)C	6
CC(C)[C@H](NC(=O)[C@H](Cc1c[nH]c2ccccc12)NC(=O)[C@H](CC(=O)O)NC(=O)[C@H](C)NC(=O)[C@@H](N)CS)C(=O)N[C@@H](CS)C(=O)N[C@@H](Cc1ccc(O)cc1)C(=O)N[C@@H](Cc1cccc2ccccc12)C(=O)N[C@@H](Cc1cnc[nH]1)C(=O)N[C@H](C(=O)N[C@@H](Cc1ccccc1)C(=O)NCC(N)=O)[C@@H](C)O	0.5 to 1
CC(=O)N[C@H]1CCSC[C@@H](C(=O)N[C@@H](Cc2ccc(OCCN)cc2)C(=O)N[C@@H](Cc2ccc3ccccc3c2)C(=O)N[C@@](C)(CCCCN)C(=O)N[C@@H](CCC(=O)O)C(=O)N[C@@H](CC(N)=O)C(=O)NCC(N)=O)NC(=O)[C@H](CCC(N)=O)NC(=O)[C@H](c2ccc(Cl)c(Cl)c2)NC(=O)[C@H]([C@@H](C)O)NC(=O)[C@H](CCC(N)=O)NC1=O	> 3
CC(=O)N[C@H](CCCCNC(=O)COCC(=O)NCCCC[C@@H](NC(C)=O)C(=O)N[C@@H](CS)C(=O)N[C@@H](C)C(=O)N[C@@H](CC(=O)O)C(=O)N[C@@H](Cc1c[nH]c2ccccc12)C(=O)N[C@H](C(=O)N[C@@H](CS)C(=O)N[C@@H](Cc1ccc(O)cc1)C(=O)N[C@@H](Cc1c[nH]c2ccccc12)C(=O)N[C@@H](Cc1cnc[nH]1)C(=O)N[C@H](C(=O)N[C@@H](Cc1ccccc1)C(=O)NCC(=O)O)[C@@H](C)O)C(C)C)C(=O)N[C@@H](CS)C(=O)N[C@@H](C)C(=O)N[C@@H](CC(=O)O)C(=O)N[C@@H](Cc1c[nH]c2ccccc12)C(=O)N[C@H](C(=O)N[C@@H](CS)C(=O)N[C@@H](Cc1ccc(O)cc1)C(=O)N[C@@H](Cc1c[nH]c2ccccc12)C(=O)N[C@@H](Cc1cnc[nH]1)C(=O)N[C@H](C(=O)N[C@@H](Cc1ccccc1)C(=O)NCC(=O)O)[C@@H](C)O)C(C)C	> 10
CC(=O)NCCCC[C@H](NC(=O)[C@](C)(CCCCN)NC(=O)[C@H](Cc1ccc2ccccc2c1)NC(=O)[C@H](Cc1ccc(-c2ccccc2)cc1)NC(=O)[C@@H](NC(=O)[C@H](CCC(N)=O)NC(=O)[C@H](Cc1c[nH]c2ccccc12)NC(=O)[C@@H](NC(=O)[C@H](CCC(N)=O)NC(=O)[C@@H](NC(C)=O)C(C)(C)S)[C@@H](C)O)C(C)(C)S)C(=O)N[C@@H](CC(N)=O)C(=O)NCC(N)=O	> 10
CC(=O)N[C@@H](CS)C(=O)N[C@@H](C)C(=O)N[C@@H](CC(=O)O)C(=O)N[C@@H](Cc1c[nH]c2ccccc12)C(=O)N[C@H](C(=O)N[C@@H](CS)C(=O)N[C@@H](Cc1ccc(O)cc1)C(=O)N[C@@H](Cc1c[nH]c2ccccc12)C(=O)N[C@@H](CCCCN)C(=O)N[C@H](C(=O)N[C@@H](Cc1ccccc1)C(=O)NCC(=O)O)[C@@H](C)O)C(C)C	> 1
CC(=O)NCCCC[C@H](NC(=O)[C@](C)(CCCCN)NC(=O)[C@@H]1Cc2ccccc2CN1C(=O)[C@H](Cc1ccc(OCCN)cc1)NC(=O)[C@@H]1CSCC[C@H](NC(C)=O)C(=O)N[C@@H](CN)C(=O)N[C@@H]([C@@H](C)O)C(=O)N[C@@H](Cc2c[nH]c3ccccc23)C(=O)N[C@@H](CCC(N)=O)C(=O)N1)C(=O)N[C@@H](CC(N)=O)C(=O)NCC(N)=O (Ac-[Abu(4-yl)][Dap]TWQC[AEF][Tic][αMeK]K(Ac)NG-NH2; thioether 1-6)	> 3
CC(=O)N[C@@H](CS)C(=O)N[C@@H](CCCNC(=N)N)C(=O)N[C@H](C(=O)N[C@@H](Cc1c[nH]c2ccccc12)C(=O)N[C@@H](CCC(N)=O)C(=O)N[C@@H](CS)C(=O)N[C@@H](Cc1ccc(O)cc1)C(=O)N[C@@H](Cc1c[nH]c2ccccc12)C(=O)N[C@@H](CCCNC(=N)N)C(=O)N[C@@H](CCCCN)C(=O)N[C@@H](Cc1ccccc1)C(=O)NCC(=O)NCCOCC(=O)N[C@H](CCCCN)C(N)=O)[C@@H](C)O	< 0.5
CC(=O)N[C@@H](CS)C(=O)N[C@@H](CCC(N)=O)C(=O)N[C@H](C(=O)N[C@@H](Cc1c[nH]c2ccccc12)C(=O)N[C@@H](CCC(N)=O)C(=O)N[C@@H](CS)C(=O)N[C@@H](Cc1ccc(O)cc1)C(=O)N[C@@H](Cc1c[nH]c2ccccc12)C(=O)N[C@@H](CCCNC(=N)N)C(=O)N[C@@H](CCCNC(=N)N)CC(=O)N[C@H](C(=O)N[C@@H](CC(N)=O)C(=O)NCC(=O)NCCOCC(=O)N[C@H](CCCCN)C(N)=O)C(C)C)[C@@H](C)O	0.922
CC(=O)N[C@@H](CS)C(=O)N[C@@H](CCC(N)=O)C(=O)N[C@H](C(=O)N[C@@H](Cc1c[nH]c2ccccc12)C(=O)N[C@@H](CCC(N)=O)C(=O)N[C@@H](CS)C(=O)N[C@@H](Cc1ccc(O)cc1)C(=O)N[C@@H](Cc1c[nH]c2ccccc12)C(=O)N[C@@H](CCCNC(=N)N)C(=O)N[C@H](C(=O)N[C@@H](CC(N)=O)C(=O)NCC(=O)NCCOCC(=O)N[C@H](CCCCN)C(N)=O)[C@@H](C)O)[C@@H](C)O	< 0.5
CC(=O)N[C@@H](CS)C(=O)N[C@@H](C)C(=O)N[C@H](C(=O)N[C@@H](Cc1c[nH]c2ccccc12)C(=O)N[C@@H](CCC(N)=O)C(=O)N[C@@H](CS)C(=O)N[C@@H](Cc1ccc(O)cc1)C(=O)N[C@@H](Cc1c[nH]c2ccccc12)C(=O)N[C@@H](Cc1cnc[nH]1)C(=O)N[C@@H](CCC(=O)O)C(=O)N[C@@H](Cc1ccc(O)cc1)C(=O)NCC(N)=O)[C@@H](C)O (Ac-CATWQCYWHEYG-NH2)	< 0.5
CC(=O)N[C@@H](CS)C(=O)N[C@H](C(=O)N[C@H](C(=O)N[C@@H](Cc1c[nH]c2ccccc12)C(=O)N[C@H](C(=O)N[C@@H](CS)C(=O)N[C@@H](Cc1ccc(O)cc1)C(=O)N[C@@H](Cc1c[nH]c2ccccc12)C(=O)N[C@@H](Cc1cnc[nH]1)C(=O)N[C@@H](CCC(N)=O)C(=O)N[C@@H](Cc1ccc(O)cc1)C(=O)NCC(N)=O)[C@@H](C)O)[C@@H](C)O)[C@@H](C)O (Ac-CTTWTCYWHQYG-NH2)	< 0.5
